Measurements taken from patent publication US7892755B2, “Screening method” (Takeda Pharmaceutical Company Limited, priority 2004, dated 2011).

What was measured:
Assay type in all cases: cell-based
control CHO-K1 cells = assay: Changes in intracellular calcium levels on FLIPR, control CHO-K1 cells with only expression vector pAKKO-111H
Description: (§1) The CHO-K1 cell line (purchased from ATCC) was incubated in HAM F-12 medium (Invitrogen) supplemented with 10% fetal calf serum, unless otherwise indicated. On the day before transfection, the cells were inoculated at 4.5×10^5/10 cm^2 and incubated at 37° C. for 15 hours or more in a CO2 incubator adjusted to 5% CO2 concentration. Using Lipofectamine reagent (Invitrogen), transfection was performed according to modifications of the procedure attached to the reagent. When a 6-well plate was used as the incubator, the transfection was performed as follows. Two tubes each having a 1.5 ml volume were prepared and 100 μl each of Opti-MEM medium (Invitrogen) was dispensed in each tube. Next, 1 μg of the GPR35 expression vector obtained in REFERENCE EXAMPLE 1 and 0.5 μg of Gα15 expression vector (Guthrie cDNA Resource Center) were incorporated into one tube and in another tube, 6 μl of Lipofectamine reagent was charged, which were then mixed together. The mixture was settled for 20 minutes at room temperature. To the solution, 800 μl of Opti-MEM medium was added and the resulting solution mixture for transfection was added to the CHO-K1 cells, which had been previously washed with Opti-MEM medium. The cells were then incubated in a CO2 incubator for 6 hours. After the incubation, the cells were rinsed with PBS (Invitrogen), then detached by 0.05% trypsin-EDTA solution (Invitrogen) and recovered by centrifugal operation. The cells obtained were counted and diluted to 5×10^4 cells per 100 μl of the medium. The dilution was dispensed to a black walled 96-well plate (Costar) at 100 μl per well, followed by incubation overnight in a CO2 incubator. Various test samples were added to the CHO-K1 cells, in which the receptor was transiently expressed, by the transfection procedure described above, whereby changes in intracellular calcium levels were assayed on a FLIPR (Molecular Device).
(§2) To assay the changes in intracellular calcium levels on FLIPR, the following pretreatment was made. First, an assay buffer was prepared to add fluorescence dye Fluo-3AM (DOJIN) to the cells, or to wash the cells immediately before the FLIPR assay. A solution was prepared by adding 20 ml of 1M HEPES (pH 7.4) (DOJIN) to 1000 ml of HBSS (Invitrogen) (hereinafter HBSS/HEPES solution). To the solution, there was added 10 ml of a solution obtained by dissolving 710 mg of Probenecid (Sigma) in 5 ml of 1N NaOH and further adding 5 ml of HBSS/HEPES solution thereto and mixing them. The resulting solution was used as an assay buffer. Next, 50 μg of Fluo-3AM was dissolved in 21 μl of DMSO (DOJIN), and an equal volume of 20% pluronic acid (Molecular Probes) was added to the solution. After mixing them, the mixture was added to 10.6 ml of an assay buffer supplemented with 105 μl of fetal calf serum to give a fluorescence dye solution. After the medium for the transfected CHO-K1 cells was removed, the fluorescence dye solution was immediately dispensed at 100 μl each per well and incubation was carried out in a CO2 incubator for an hour to take up the fluorescence dye into the cells. The incubated cells were washed with the assay buffer described above and set on FLIPR. Test samples to be added to the receptor-expressed CHO-K1 cells were prepared using the assay buffer and simultaneously set on FLIPR.
After the pretreatment described above was made, changes in intracellular calcium levels by the addition of various test samples were assayed on FLIPR. […]

GPR35 [1] = target: T1, GPR35 (Homo sapiens, UniProt Q9HC97, S294R); assay: Changes in intracellular calcium levels on FLIPR, CHO-K1 cells transiently co-expressing GPR35 and Gα15; set-up: The resulting fragment (ca. 1 kb) was introduced into vector pAKKO-111; expressed in transfected cells; host or cells: CHO-K1 (ATCC), transient transfection; settings: Fluo-3AM, 0.3-10 μM shown for DNQX and ellagic acid (FIG. 1, 2)
Description: as §1, §2
After the pretreatment described above was made, changes in intracellular calcium levels by the addition of various test samples were assayed on FLIPR.

mouse GPR35 = target: T2, mouse GPR35 (Mus musculus, UniProt Q9ES90, D300Y/S286F); assay: Reactivity on FLIPR, CHO-K1 cells transfected with mouse GPR35 expression vector
T2 construct: the digestion product was inserted into plasmid vector pAKKO-111H; expressed in transfected cells; host or cells: CHO-K1 cells
Description: The CHO-K1 cell line (purchased from ATCC) was incubated in HAM F-12 medium (Invitrogen) supplemented with 10% fetal calf serum, unless otherwise indicated. On the day before transfection, the cells were inoculated at 4.5×10^5/10 cm^2 and incubated at 37° C. for 15 hours or more in a CO2 incubator adjusted to 5% CO2 concentration. Using Lipofectamine reagent (Invitrogen), transfection was performed according to modifications of the procedure attached to the reagent. When a 6-well plate was used as the incubator, the transfection was performed as follows. Two tubes each having a 1.5 ml volume were prepared and 100 μl each of Opti-MEM medium (Invitrogen) was dispensed in each tube. […] The cells obtained were counted and diluted to 5×10^4 cells per 100 μl of the medium. […]
To assay the changes in intracellular calcium levels on FLIPR, the following pretreatment was made. First, an assay buffer was prepared to add fluorescence dye Fluo-3AM (DOJIN) to the cells, or to wash the cells immediately before the FLIPR assay. […] After mixing them, the mixture was added to 10.6 ml of an assay buffer supplemented with 105 μl of fetal calf serum to give a fluorescence dye solution. […]

GPR35 [2] = target: T1, GPR35; assay: Changes in intracellular calcium levels on FLIPR, CHO cell line stably co-expressing human GPR35 and Gα16; set-up: expressed in transfected cells
Description: The Gα16-stably expressed cell line (Gα16/CHO cell line) as a host cell was prepared by transfecting the Gα16 expression vector (Guthrie cDNA Resource Center) into CHO cells in a conventional manner and incubating at 37° C. under 5% CO2 in αMEM medium (containing nucleic acid; Invitrogen) supplemented with 10% fetal calf serum (Invitrogen), 50 units/ml penicillin/50 ug/ml streptomycin (CAMBREX) and 1 mg/ml geneticin (Invitrogen). The cells that were incubated for 2 days in αMEM medium (containing nucleic acid) supplemented only with 10% fetal calf serum charged in a 75 cm^2 flask were used for the transfection. The transfection was carried out using Lipofectamine reagent (Invitrogen) by a modification of the protocol attached to the reagent. First, 2 centrifuge tubes each having a 15 ml volume were prepared and 600 μl each of Opti-MEM medium (Invitrogen) was dispensed in each tube. Next, 4.8 μg of the expression vector was charged in one tube and in another tube 36 μl of Lipofectamine reagent was charged, which were mixed together. The mixture was settled for 20 minutes at room temperature. […] The cells obtained were counted and diluted with αMEM medium (containing no nucleic acid; Invitrogen) supplemented only with 10% dialyzed fetal calf serum to have 0.3, 1.5 and 7.5 cells per 100 μl of the medium. […]

T1 sequence (Q9HC97 whole entry S294R, the tested form may be a part): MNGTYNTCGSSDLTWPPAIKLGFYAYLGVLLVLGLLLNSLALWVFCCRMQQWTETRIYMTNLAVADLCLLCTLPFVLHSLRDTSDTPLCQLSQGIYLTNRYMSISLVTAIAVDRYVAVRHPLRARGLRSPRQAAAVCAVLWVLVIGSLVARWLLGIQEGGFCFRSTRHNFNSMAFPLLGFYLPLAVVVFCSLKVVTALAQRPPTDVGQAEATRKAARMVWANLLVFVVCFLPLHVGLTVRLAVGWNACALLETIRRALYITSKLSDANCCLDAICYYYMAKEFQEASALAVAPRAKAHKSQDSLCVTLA
T2 sequence (Q9ES90 whole entry S286F/D300Y): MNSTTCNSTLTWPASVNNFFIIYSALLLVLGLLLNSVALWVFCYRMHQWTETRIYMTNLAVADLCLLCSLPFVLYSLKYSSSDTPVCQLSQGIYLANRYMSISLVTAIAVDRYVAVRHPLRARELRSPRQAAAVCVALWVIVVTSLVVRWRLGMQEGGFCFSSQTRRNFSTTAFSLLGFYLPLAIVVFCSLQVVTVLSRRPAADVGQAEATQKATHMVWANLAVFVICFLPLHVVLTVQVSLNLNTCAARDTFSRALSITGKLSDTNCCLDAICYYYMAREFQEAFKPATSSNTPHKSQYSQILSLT

Compound | response (increased intracellular calcium levels) in control cells (control CHO-K1 cells) | response (increased intracellular calcium levels) (GPR35 [1]) | reactivity of mouse GPR35 (FLIPR) (mouse GPR35) | intracellular calcium levels (GPR35 [2])
O=C1N=c2cc([N+](=O)[O-])cc([N+](=O)[O-])c2=NC1=O [5,7-dinitroquinoxaline-2,3-dione] | not observed | dose-dependently responded (increased intracellular calcium levels) | – | –
N#Cc1cc2c(cc1[N+](=O)[O-])=NC(=O)C(=O)N=2 [6-cyano-7-nitroquinoxaline-2,3-dione] | not observed | dose-dependently responded (increased intracellular calcium levels) | – | –
O=c1oc2c(O)c(O)cc3c(=O)oc4c(O)c(O)cc1c4c23 [ellagic acid] | not observed | dose-dependently responded (increased intracellular calcium levels) | responsive | increased
